Data published in article PMC8876215, “Anticancer Activity of the Choline Kinase Inhibitor PL48 Is Due to Selective Disruption of Choline Metabolism and Transport Systems in Cancer Cell Lines” (Pharmaceutics, 2022).

Target: T1, ChoKα1 (choline kinase α1) (Homo sapiens, UniProt P35790)
T1 construct: gene CHKA; truncated form of ChoKα1 (Δ75–457), N-terminal 6x His-tag
Experiment: radiometric assay: [methyl-14C]choline to phosphocholine by purified recombinant enzyme, TLC and scintillation counting
Assay type: biochemical

T1 sequence (P35790 75-457): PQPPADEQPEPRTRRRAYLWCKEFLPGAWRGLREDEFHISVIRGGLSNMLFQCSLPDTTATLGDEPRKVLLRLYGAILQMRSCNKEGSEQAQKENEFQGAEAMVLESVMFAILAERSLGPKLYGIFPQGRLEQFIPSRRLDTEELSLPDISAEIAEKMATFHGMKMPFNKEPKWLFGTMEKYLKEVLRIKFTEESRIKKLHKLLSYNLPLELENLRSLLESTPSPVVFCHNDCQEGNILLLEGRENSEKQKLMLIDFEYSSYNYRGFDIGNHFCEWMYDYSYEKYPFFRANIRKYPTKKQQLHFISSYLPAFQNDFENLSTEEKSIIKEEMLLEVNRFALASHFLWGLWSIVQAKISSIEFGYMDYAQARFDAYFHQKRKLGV

SMILES: Clc1ccc2c(N3CCCC3)cc[n+](Cc3ccc(SCCSc4ccc(C[n+]5ccc(N6CCCC6)c6ccc(Cl)cc65)cc4)cc3)c2c1 [PL48]
- IC50: 658 ± 67 nM
